US10160747B2, “Compounds and methods for kinase modulation, and indications therefor” (Plexxikon Inc., priority 2016, dated 2018)

The compounds below were run against T1, BA/F3-FLT3-ITD + D835Y (Homo sapiens, UniProt P36888, D835Y, cells depend on it, form not given) (assay: Engineered BA/F3 cell growth assay, FLT3 ITD/D835Y). Settings: 3 d growth.
T1 sequence (P36888 with tags, fused parts or gaps INS600HVDFREYEYD/D835Y): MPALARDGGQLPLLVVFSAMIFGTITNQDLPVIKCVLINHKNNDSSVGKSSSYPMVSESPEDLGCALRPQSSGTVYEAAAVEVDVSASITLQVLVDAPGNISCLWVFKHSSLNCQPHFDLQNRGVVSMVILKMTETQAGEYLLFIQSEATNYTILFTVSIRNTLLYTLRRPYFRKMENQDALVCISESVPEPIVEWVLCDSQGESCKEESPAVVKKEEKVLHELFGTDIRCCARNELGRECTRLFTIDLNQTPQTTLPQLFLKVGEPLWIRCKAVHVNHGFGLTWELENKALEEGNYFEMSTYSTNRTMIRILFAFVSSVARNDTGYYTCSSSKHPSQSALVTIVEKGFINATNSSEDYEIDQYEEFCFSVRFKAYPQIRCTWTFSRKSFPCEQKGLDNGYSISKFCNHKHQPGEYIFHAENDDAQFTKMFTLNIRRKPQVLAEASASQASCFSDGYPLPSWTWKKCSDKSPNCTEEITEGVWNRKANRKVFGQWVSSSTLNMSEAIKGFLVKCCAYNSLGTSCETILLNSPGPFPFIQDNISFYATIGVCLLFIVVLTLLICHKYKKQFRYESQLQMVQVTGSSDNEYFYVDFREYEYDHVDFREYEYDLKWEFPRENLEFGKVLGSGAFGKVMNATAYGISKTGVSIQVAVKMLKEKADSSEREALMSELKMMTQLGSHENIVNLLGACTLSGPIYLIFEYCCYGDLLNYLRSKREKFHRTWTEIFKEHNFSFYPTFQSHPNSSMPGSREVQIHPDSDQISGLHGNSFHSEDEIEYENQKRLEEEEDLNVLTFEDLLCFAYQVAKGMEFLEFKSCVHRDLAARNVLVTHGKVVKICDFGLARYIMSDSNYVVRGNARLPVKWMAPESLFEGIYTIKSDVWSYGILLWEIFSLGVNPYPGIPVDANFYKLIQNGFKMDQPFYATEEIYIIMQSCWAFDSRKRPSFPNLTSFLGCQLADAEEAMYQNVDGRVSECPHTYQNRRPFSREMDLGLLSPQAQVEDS
Type: cell-based, murine
Method in brief: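 IC50 derived from CellTiter-Glo ATP luminescence after 3 days at 37 °C, 5% CO2, over eight 1:3 dilutions from 1 μM (0.2% DMSO final). Cells: IL-3-independent murine Ba/F3 expressing full-length FLT3 ITD/D835Y, 1×10^4 per well.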

GI50, 0.0001 to 10 µM:
COCCn1cc(Nc2ncc(-c3ccc(CC(=O)Nc4ccc(C(F)(F)F)cn4)c(F)c3)cn2)cn1 [Compound P-0269, 2-[2-fluoro-4-[2-[[1-(2-methoxyethyl)pyrazol-4-yl]amino]pyrimidin-5-yl]phenyl]-N-[5-(trifluoromethyl)-2-pyridyl]acetamide]
COc1ncc(NC(=O)Cc2ccc(-c3cnc(Nc4cnn(C5CC5)c4)nc3)cc2F)cc1C(F)(F)F [Compound P-0241, 2-[4-[2-[(1-cyclopropylpyrazol-4-yl)amino]pyrimidin-5-yl]-2-fluoro-phenyl]-N-[6-methoxy-5-(trifluoromethyl)-3-pyridyl]acetamide]
Cc1ncc(NC(=O)Cc2ccc(-c3cnc(Nc4cnn(C5CC5)c4)nc3)cc2F)cc1C(F)(F)F [Compound P-0239, 2-[4-[2-[(1-cyclopropylpyrazol-4-yl)amino]pyrimidin-5-yl]-2-fluoro-phenyl]-N-[6-methyl-5-(trifluoromethyl)-3-pyridyl]acetamide]
CCn1cc(Nc2ncc(-c3cc(F)c(CC(=O)Nc4cnc(OC)c(C(F)(F)F)c4)cc3F)cn2)cn1 [Compound P-0247, 2-[4-[2-[(1-ethylpyrazol-4-yl)amino]pyrimidin-5-yl]-2,5-difluoro-phenyl]-N-[6-methoxy-5-(trifluoromethyl)-3-pyridyl]acetamide]
COCCn1cc(Nc2ncc(-c3ccc(CC(=O)Nc4cncc(C(F)(F)F)c4)c(F)c3)cn2)cn1 [Compound P-0267, 2-[2-fluoro-4-[2-[[1-(2-methoxyethyl)pyrazol-4-yl]amino]pyrimidin-5-yl]phenyl]-N-[5-(trifluoromethyl)-3-pyridyl]acetamide]
COc1ncc(NC(=O)Cc2ccc(-c3cnc4[nH]c(-c5cnn(C(F)F)c5)cc4c3)cc2F)cc1C(F)(F)F [Compound P-0015, 2-[4-[2-[1-(difluoromethyl)pyrazol-4-yl]-1H-pyrrolo[2,3-b]pyridin-5-yl]-2-fluoro-phenyl]-N-[6-methoxy-5-(trifluoromethyl)-3-pyridyl]acetamide]
Cc1ncc(NC(=O)Cc2ccc(-c3cnc(Nc4cnn(C(F)F)c4)nc3)cc2)cc1C(F)(F)F [Compound P-0210, 2-[4-[2-[[1-(difluoromethyl)pyrazol-4-yl]amino]pyrimidin-5-yl]phenyl]-N-[6-methyl-5-(trifluoromethyl)-3-pyridyl]acetamide]
Cc1ncc(NC(=O)Cc2ccc(-c3cnc(Nc4cnn(C5CC5)c4)nc3)cc2)cc1C(F)(F)F [Compound P-0232, 2-[4-[2-[(1-cyclopropylpyrazol-4-yl)amino]pyrimidin-5-yl]phenyl]-N-[6-methyl-5-(trifluoromethyl)-3-pyridyl]acetamide]
COc1ncc(NC(=O)Cc2ccc(-c3cnc(Nc4cnn(C(F)F)c4)nc3)cc2)cc1C(F)(F)F [Compound P-0211, 2-[4-[2-[[1-(difluoromethyl)pyrazol-4-yl]amino]pyrimidin-5-yl]phenyl]-N-[6-methoxy-5-(trifluoromethyl)-3-pyridyl]acetamide]
COc1ncc(NC(=O)Cc2ccc(-c3cnc(Nc4cn[nH]c4C)nc3)cc2)cc1C(F)(F)F [Compound P-0221, N-[6-methoxy-5-(trifluoromethyl)-3-pyridyl]-2-[4-[2-[(5-methyl-1H-pyrazol-4-yl)amino]pyrimidin-5-yl]phenyl]acetamide]
CCOc1n[nH]c2ncc(-c3ccc(CC(=O)Nc4cnc(OC)c(C(F)(F)F)c4)cc3F)cc12 [Compound P-0202, 2-[4-(3-ethoxy-1H-pyrazolo[3,4-b]pyridin-5-yl)-3-fluoro-phenyl]-N-[6-methoxy-5-(trifluoromethyl)-3-pyridyl]acetamide]
CCn1cc(Nc2ncc(-c3ccc(CC(=O)Nc4ccc(C(F)(F)F)nc4)c(F)c3)cn2)cn1 [Compound P-0257, 2-[4-[2-[(1-ethylpyrazol-4-yl)amino]pyrimidin-5-yl]-2-fluoro-phenyl]-N-[6-(trifluoromethyl)-3-pyridyl]acetamide]
CCn1cc(Nc2ncc(-c3ccc(CC(=O)Nc4cnc(OC)c(C(F)(F)F)c4)cc3)cn2)cn1 [Compound P-0253, 2-[4-[2-[(1-ethylpyrazol-4-yl)amino]pyrimidin-5-yl]phenyl]-N-[6-methoxy-5-(trifluoromethyl)-3-pyridyl]acetamide]
COCCn1cc(Nc2ncc(-c3ccc(CC(=O)Nc4cnc(Cl)c(C(F)(F)F)c4)c(F)c3)cn2)cn1 [Compound P-0266, N-[6-chloro-5-(trifluoromethyl)-3-pyridyl]-2-[2-fluoro-4-[2-[[1-(2-methoxyethyl)pyrazol-4-yl]amino]pyrimidin-5-yl]phenyl]acetamide]
COc1ncc(NC(=O)Cc2ccc(-c3cnc4[nH]c(C#CC(C)(C)O)cc4c3)cc2)cc1C(F)(F)F [Compound P-0214, 2-(4-(2-(3-hydroxy-3-methylbut-1-yn-1-yl)-1H-pyrrolo[2,3-b]pyridin-5-yl)phenyl)-N-(6-methoxy-5-(trifluoromethyl)pyridin-3-yl)acetamide]
COc1ncc(NC(=O)Cc2ccc(-c3cnc4[nH]nc(C5CC5)c4c3)cc2F)cc1C(F)(F)F [Compound P-0262, 2-[4-(3-cyclopropyl-1H-pyrazolo[3,4-b]pyridin-5-yl)-2-fluoro-phenyl]-N-[6-methoxy-5-(trifluoromethyl)-3-pyridyl]acetamide]
COc1ncc(NC(=O)Cc2ccc(-c3cnc4[nH]c(C#Cc5cncn5C)cc4c3)cc2)cc1C(F)(F)F [Compound P-0227, N-[6-methoxy-5-(trifluoromethyl)-3-pyridyl]-2-[4-[2-[2-(3-methylimidazol-4-yl)ethynyl]-1H-pyrrolo[2,3-b]pyridin-5-yl]phenyl]acetamide]
Cn1cc(Nc2ncc(-c3ccc(CC(=O)Nc4cc(C(F)(F)F)ccn4)cc3F)cn2)cn1 [Compound P-0017, 2-[3-fluoro-4-[2-[(1-methylpyrazol-4-yl)amino]pyrimidin-5-yl]phenyl]-N-[4-(trifluoromethyl)-2-pyridyl]acetamide]
CCn1cc(Nc2ncc(-c3ccc(CC(=O)Nc4cncc(C(F)(F)F)c4)c(F)c3)cn2)cn1 [Compound P-0258, 2-[4-[2-[(1-ethylpyrazol-4-yl)amino]pyrimidin-5-yl]-2-fluoro-phenyl]-N-[5-(trifluoromethyl)-3-pyridyl]acetamide]
O=C(Cc1ccc(-c2cnc(Nc3cnn(C4CC4)c3)nc2)cc1)Nc1ccc(C(F)(F)F)nc1 [Compound P-0235, 2-[4-[2-[(1-cyclopropylpyrazol-4-yl)amino]pyrimidin-5-yl]phenyl]-N-[6-(trifluoromethyl)-3-pyridyl]acetamide]
COCCn1cc(Nc2ncc(-c3ccc(CC(=O)Nc4ccc(C(F)(F)F)cn4)cc3)cn2)cn1 [Compound P-0274, 2-[4-[2-[[1-(2-methoxyethyl)pyrazol-4-yl]amino]pyrimidin-5-yl]phenyl]-N-[5-(trifluoromethyl)-2-pyridyl]acetamide]
COc1ncc(NC(=O)Cc2ccc(-c3cnc4[nH]c(C#CC(C)(C)C)cc4c3)cc2)cc1C(F)(F)F [Compound P-0219, 2-[4-[2-(3,3-dimethylbut-1-ynyl)-1H-pyrrolo[2,3-b]pyridin-5-yl]phenyl]-N-[6-methoxy-5-(trifluoromethyl)-3-pyridyl]acetamide]
COc1ncc(NC(=O)Cc2ccc(-c3cnc4[nH]nc(N)c4c3)c(F)c2)cc1C(F)(F)F [Compound P-0203, 2-[4-(3-amino-1H-pyrazolo[3,4-b]pyridin-5-yl)-3-fluoro-phenyl]-N-[6-methoxy-5-(trifluoromethyl)-3-pyridyl]acetamide]
Cn1cc(Nc2ncc(-c3ccc(CC(=O)Nc4cncc(C(F)(F)F)c4)cc3F)cn2)cn1 [Compound P-0205, 2-[3-fluoro-4-[2-[(1-methylpyrazol-4-yl)amino]pyrimidin-5-yl]phenyl]-N-[5-(trifluoromethyl)-3-pyridyl]acetamide]
CCn1cc(Nc2ncc(-c3ccc(CC(=O)Nc4cnc(Cl)c(C(F)(F)F)c4)c(F)c3)cn2)cn1 [Compound P-0260, N-[6-chloro-5-(trifluoromethyl)-3-pyridyl]-2-[4-[2-[(1-ethylpyrazol-4-yl)amino]pyrimidin-5-yl]-2-fluoro-phenyl]acetamide]
